Data reported in ChEMBL document CHEMBL5303763, “Data for DCP probe BI-3802” (2023).
One block for each molecule: values may come before it.

Columns and labels:
[1] = biological target: 5-hydroxytryptamine receptor 1B (Rattus norvegicus) (UniProt P28564); assay: 5HT1B/R Eurofins SafetyScreen44 (BI); conditions: Compound concentration 10.0 uM
[2] = biological target: Platelet-derived growth factor receptor alpha (Homo sapiens) (UniProt P16234); assay: PDGFRA Invitrogen Lab (UK) kinase screen (BI); conditions: Compound concentration 1.0 uM
[3] = biological target: 5-hydroxytryptamine receptor 2C (Homo sapiens) (UniProt P28335); conditions: Compound concentration 10.0 uM
[4] = biological target: Sigma intracellular receptor 2 (Homo sapiens) (UniProt Q5BJF2); conditions: Compound concentration 10.0 uM
[5] = biological target: Alpha-1B adrenergic receptor (Homo sapiens) (UniProt P35368); conditions: Compound concentration 10.0 uM
[6] = biological target: 3-phosphoinositide-dependent protein kinase 1 (Homo sapiens) (UniProt O15530); assay: PDK1 Invitrogen Lab (UK) kinase screen (BI); conditions: Compound concentration 1.0 uM
[7] = biological target: Cyclin-dependent kinase 2/cyclin A (Homo sapiens) (UniProt P24941+P20248+P78396); assay: CDK2/CYCLINA Invitrogen Lab (UK) kinase screen (BI); assay type: protein-complex assay; conditions: Compound concentration 1.0 uM
[8] = biological target: Leucine-rich repeat serine/threonine-protein kinase 2 (Homo sapiens) (UniProt Q5S007); assay: LRRK2 Invitrogen Lab (UK) kinase screen (BI); conditions: Compound concentration 1.0 uM
[9] = biological target: D(1B) dopamine receptor (Homo sapiens) (UniProt P21918); conditions: Compound concentration 10.0 uM
[10] = biological target: T1, 5-hydroxytryptamine receptor 1A (Homo sapiens) (UniProt P08908); conditions: Compound concentration 10.0 uM
T1 sequence (whole entry): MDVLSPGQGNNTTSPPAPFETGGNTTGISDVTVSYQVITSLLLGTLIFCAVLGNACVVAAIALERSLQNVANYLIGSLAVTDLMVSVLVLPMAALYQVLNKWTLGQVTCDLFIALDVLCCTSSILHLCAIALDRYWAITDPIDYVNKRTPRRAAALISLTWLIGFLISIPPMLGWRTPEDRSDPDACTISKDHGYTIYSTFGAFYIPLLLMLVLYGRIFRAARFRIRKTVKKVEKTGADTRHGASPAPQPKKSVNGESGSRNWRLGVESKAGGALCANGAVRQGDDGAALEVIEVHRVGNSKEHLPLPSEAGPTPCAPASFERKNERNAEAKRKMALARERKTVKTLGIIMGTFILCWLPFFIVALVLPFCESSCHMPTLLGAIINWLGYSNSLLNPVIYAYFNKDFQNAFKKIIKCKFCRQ

[11] = biological target: 5-hydroxytryptamine receptor 2A (Homo sapiens) (UniProt P28223); conditions: Compound concentration 10.0 uM
[12] = biological target: Histamine H1 receptor (Homo sapiens) (UniProt P35367); conditions: Compound concentration 10.0 uM
[13] = biological target: Dual specificity protein kinase CLK1 (Homo sapiens) (UniProt P49759); assay: CLK1 Invitrogen Lab (UK) kinase screen (BI); conditions: Compound concentration 1.0 uM
[14] = biological target: T2, 5-hydroxytryptamine receptor 3A (Homo sapiens) (UniProt P46098); conditions: Compound concentration 10.0 uM
T2 sequence (whole entry): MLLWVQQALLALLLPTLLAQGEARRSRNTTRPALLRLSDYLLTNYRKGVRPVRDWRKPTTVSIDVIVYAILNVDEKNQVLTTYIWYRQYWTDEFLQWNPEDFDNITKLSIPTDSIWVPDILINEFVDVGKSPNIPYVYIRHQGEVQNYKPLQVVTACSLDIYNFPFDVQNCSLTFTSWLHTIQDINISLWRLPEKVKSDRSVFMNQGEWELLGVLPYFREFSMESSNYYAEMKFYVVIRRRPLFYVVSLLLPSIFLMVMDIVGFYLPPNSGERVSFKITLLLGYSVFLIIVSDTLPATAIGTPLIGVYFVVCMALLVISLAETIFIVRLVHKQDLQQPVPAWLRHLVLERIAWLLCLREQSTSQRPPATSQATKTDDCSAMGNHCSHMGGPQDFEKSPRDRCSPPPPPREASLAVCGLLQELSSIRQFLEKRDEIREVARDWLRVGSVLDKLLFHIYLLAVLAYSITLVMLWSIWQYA

[15] = biological target: Muscarinic acetylcholine receptor M4 (Homo sapiens) (UniProt P08173); conditions: Compound concentration 10.0 uM
[16] = biological target: D(2) dopamine receptor (Homo sapiens) (UniProt P14416); conditions: Compound concentration 10.0 uM
[17] = biological target: D(3) dopamine receptor (Homo sapiens) (UniProt P35462); conditions: Compound concentration 10.0 uM
[18] = biological target: AMP-activated protein kinase (AMPK) alpha-1/beta-1/gamma-1 (Homo sapiens) (UniProt P54619+Q9Y478+Q13131); assay: AMPK A1B1G1 Invitrogen Lab (UK) kinase screen (BI); assay type: protein-complex assay; conditions: Compound concentration 1.0 uM
[19] = biological target: Muscarinic acetylcholine receptor M3 (Homo sapiens) (UniProt P20309); conditions: Compound concentration 10.0 uM
[20] = biological target: Casein kinase I isoform alpha (Homo sapiens) (UniProt P48729); assay: CSNK1A1 Invitrogen Lab (UK) kinase screen (BI); conditions: Compound concentration 1.0 uM
[21] = biological target: MAP kinase-activated protein kinase 2 (Homo sapiens) (UniProt P49137); assay: MAPKAPK2 Invitrogen Lab (UK) kinase screen (BI); conditions: Compound concentration 1.0 uM
[22] = biological target: Tyrosine-protein kinase ABL1 (Homo sapiens) (UniProt P00519); assay: ABL1 Invitrogen Lab (UK) kinase screen (BI); conditions: Compound concentration 1.0 uM
[23] = biological target: Dual specificity mitogen-activated protein kinase kinase 1 (Homo sapiens) (UniProt Q02750); assay: MAP2K1 Invitrogen Lab (UK) kinase screen (BI); conditions: Compound concentration 1.0 uM
[24] = biological target: 5-hydroxytryptamine receptor 1B (Homo sapiens) (UniProt P28222); conditions: Compound concentration 10.0 uM
[25] = biological target: Protein kinase C alpha type (Homo sapiens) (UniProt P17252); assay: PRKCA Invitrogen Lab (UK) kinase screen (BI); conditions: Compound concentration 1.0 uM
[26] = biological target: Alpha-2B adrenergic receptor (Homo sapiens) (UniProt P18089); conditions: Compound concentration 10.0 uM
[27] = biological target: D(4) dopamine receptor (Homo sapiens) (UniProt P21917); conditions: Compound concentration 10.0 uM
[28] = biological target: Dual specificity mitogen-activated protein kinase kinase 6 (Homo sapiens) (UniProt P52564); assay: MAP2K6 Invitrogen Lab (UK) kinase screen (BI); conditions: Compound concentration 1.0 uM
[29] = biological target: Mu-type opioid receptor (Homo sapiens) (UniProt P35372); conditions: Compound concentration 10.0 uM
[30] = biological target: Zinc finger and BTB domain-containing protein 17 (Homo sapiens, UniProt Q13105); assay: SPR (ZBTB17), Ontario institute for cancer research
[31] = biological target: B-cell lymphoma 6 protein (Homo sapiens, UniProt P41182); assay: SPR (BCL6), Ontario institute for cancer research
[32] = biological target: 5-hydroxytryptamine receptor 1B (Homo sapiens) (UniProt P28222); assay: 5HT1B(H) Eurofins SafetyScreen44 (BI); conditions: filed as antagonist, Compound concentration 10.0 uM

Chain of 5-hydroxytryptamine receptor 1B (Homo sapiens) (P28222 whole entry): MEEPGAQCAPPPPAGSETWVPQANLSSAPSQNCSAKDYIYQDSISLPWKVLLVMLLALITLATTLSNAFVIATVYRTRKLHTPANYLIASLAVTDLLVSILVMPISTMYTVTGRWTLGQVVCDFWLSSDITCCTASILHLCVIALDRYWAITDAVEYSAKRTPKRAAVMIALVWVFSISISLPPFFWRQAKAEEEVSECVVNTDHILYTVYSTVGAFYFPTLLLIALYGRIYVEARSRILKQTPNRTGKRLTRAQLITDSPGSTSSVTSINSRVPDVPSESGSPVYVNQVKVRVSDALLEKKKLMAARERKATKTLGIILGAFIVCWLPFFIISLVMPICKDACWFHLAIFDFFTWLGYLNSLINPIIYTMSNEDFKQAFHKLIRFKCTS
Chain of Sigma intracellular receptor 2 (Homo sapiens) (Q5BJF2 whole entry): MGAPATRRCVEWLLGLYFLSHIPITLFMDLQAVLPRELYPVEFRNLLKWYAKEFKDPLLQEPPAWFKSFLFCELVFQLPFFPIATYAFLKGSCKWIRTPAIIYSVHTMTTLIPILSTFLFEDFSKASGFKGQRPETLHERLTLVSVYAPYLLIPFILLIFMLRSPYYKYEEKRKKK
Chain of Muscarinic acetylcholine receptor M4 (Homo sapiens) (P08173 whole entry): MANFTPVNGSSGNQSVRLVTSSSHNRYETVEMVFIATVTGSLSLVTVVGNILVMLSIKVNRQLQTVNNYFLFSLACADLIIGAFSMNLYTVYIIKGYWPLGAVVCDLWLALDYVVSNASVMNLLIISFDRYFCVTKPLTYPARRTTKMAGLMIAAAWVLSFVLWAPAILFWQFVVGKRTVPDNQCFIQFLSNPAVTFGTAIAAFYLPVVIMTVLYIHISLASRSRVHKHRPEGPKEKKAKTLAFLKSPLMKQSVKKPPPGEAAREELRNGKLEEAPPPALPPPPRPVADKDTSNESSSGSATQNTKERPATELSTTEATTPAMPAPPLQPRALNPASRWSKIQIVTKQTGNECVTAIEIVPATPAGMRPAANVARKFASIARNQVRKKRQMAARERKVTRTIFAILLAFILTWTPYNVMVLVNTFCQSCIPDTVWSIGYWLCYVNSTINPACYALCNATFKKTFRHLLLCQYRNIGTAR
Chain of D(1B) dopamine receptor (Homo sapiens) (P21918 whole entry): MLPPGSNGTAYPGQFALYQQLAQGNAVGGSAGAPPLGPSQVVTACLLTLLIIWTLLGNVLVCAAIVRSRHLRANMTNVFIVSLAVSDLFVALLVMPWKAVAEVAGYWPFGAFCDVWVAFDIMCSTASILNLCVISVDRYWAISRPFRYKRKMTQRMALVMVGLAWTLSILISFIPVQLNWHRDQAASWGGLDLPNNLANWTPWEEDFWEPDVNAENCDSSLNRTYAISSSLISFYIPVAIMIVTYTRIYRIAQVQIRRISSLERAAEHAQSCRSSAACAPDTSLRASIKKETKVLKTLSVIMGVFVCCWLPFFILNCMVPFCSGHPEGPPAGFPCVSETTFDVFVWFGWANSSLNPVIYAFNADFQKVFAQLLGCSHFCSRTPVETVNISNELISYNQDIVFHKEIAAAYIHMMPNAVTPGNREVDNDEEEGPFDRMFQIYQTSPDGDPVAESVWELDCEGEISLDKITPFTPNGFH
Chain of D(3) dopamine receptor (Homo sapiens) (P35462 whole entry): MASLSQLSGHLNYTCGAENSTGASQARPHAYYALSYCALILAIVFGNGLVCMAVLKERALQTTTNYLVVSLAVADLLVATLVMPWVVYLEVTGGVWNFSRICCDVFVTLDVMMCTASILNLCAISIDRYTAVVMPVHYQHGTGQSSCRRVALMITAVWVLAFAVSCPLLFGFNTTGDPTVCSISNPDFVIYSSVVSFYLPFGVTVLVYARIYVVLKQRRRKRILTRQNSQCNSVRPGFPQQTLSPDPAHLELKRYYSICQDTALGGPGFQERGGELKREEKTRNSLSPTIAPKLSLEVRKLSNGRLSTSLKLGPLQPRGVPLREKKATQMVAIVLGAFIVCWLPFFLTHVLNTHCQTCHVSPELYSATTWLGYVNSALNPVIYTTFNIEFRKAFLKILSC
Chain of Muscarinic acetylcholine receptor M3 (Homo sapiens) (P20309 whole entry, looked up, canonical isoform): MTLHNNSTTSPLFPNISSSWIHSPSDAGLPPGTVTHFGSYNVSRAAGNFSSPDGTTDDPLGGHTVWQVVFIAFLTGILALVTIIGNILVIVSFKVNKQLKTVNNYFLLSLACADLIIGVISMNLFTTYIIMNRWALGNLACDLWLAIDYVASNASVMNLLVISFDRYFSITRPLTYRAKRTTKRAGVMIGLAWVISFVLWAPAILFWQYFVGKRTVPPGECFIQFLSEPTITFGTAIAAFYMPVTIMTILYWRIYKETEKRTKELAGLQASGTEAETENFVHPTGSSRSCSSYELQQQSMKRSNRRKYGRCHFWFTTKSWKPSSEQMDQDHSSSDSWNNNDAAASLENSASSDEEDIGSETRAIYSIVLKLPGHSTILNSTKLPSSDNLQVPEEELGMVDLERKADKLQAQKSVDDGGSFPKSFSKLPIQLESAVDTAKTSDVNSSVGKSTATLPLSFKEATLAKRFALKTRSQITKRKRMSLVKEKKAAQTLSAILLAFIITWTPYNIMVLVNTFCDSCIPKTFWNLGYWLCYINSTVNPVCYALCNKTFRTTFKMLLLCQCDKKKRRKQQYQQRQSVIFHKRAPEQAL
Chain of D(2) dopamine receptor (Homo sapiens) (P14416 whole entry): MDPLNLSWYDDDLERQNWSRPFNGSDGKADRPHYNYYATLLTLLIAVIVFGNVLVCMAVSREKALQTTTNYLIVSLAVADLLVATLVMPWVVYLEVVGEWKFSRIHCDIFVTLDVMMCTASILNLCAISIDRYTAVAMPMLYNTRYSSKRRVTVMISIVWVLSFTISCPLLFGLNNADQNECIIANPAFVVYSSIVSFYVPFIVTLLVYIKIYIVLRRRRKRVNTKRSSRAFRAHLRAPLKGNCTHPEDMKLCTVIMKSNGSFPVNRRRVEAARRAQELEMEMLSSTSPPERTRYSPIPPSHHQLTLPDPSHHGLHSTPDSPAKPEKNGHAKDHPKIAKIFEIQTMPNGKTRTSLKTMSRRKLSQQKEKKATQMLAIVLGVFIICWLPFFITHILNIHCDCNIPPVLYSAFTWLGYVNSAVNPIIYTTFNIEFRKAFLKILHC
Chain of D(4) dopamine receptor (Homo sapiens) (P21917 whole entry): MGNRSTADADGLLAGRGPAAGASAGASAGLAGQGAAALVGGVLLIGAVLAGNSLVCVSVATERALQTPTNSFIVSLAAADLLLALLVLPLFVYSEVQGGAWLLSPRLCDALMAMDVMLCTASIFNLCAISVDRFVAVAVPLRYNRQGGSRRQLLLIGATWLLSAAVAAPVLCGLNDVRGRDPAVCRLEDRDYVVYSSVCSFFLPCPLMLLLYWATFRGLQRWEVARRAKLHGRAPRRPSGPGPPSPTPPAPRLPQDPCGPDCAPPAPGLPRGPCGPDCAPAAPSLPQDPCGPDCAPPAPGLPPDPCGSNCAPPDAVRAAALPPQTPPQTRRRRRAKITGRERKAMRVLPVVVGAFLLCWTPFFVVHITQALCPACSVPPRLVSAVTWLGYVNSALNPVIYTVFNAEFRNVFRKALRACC
Chain of 5-hydroxytryptamine receptor 2C (Homo sapiens) (P28335 whole entry): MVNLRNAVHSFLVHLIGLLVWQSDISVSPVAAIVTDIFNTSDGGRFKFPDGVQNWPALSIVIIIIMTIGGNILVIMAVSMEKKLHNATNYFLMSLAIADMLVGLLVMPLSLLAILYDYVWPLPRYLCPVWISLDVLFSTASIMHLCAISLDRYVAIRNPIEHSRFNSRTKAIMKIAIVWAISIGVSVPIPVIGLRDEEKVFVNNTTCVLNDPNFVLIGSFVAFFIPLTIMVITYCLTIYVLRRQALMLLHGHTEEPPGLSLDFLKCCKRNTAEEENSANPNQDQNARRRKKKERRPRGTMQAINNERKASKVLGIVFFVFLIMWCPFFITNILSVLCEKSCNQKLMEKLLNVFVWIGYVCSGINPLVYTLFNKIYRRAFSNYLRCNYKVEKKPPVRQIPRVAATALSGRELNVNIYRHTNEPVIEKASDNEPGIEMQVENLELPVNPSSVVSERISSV
Chain of 5-hydroxytryptamine receptor 2A (Homo sapiens) (P28223 whole entry): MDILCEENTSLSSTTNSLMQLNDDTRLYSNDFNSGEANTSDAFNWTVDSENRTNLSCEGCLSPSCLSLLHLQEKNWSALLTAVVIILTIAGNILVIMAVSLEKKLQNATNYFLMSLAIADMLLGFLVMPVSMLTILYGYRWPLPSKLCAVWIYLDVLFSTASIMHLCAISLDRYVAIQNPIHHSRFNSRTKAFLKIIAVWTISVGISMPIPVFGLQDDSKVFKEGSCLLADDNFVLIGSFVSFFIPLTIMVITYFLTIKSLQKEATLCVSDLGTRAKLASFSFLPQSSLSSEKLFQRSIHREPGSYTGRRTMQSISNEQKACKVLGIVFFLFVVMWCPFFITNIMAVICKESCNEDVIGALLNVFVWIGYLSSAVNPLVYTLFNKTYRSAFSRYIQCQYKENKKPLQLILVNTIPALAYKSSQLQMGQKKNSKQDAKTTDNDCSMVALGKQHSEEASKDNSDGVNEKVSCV
Chain of Mu-type opioid receptor (Homo sapiens) (P35372 whole entry, the tested form may be a part): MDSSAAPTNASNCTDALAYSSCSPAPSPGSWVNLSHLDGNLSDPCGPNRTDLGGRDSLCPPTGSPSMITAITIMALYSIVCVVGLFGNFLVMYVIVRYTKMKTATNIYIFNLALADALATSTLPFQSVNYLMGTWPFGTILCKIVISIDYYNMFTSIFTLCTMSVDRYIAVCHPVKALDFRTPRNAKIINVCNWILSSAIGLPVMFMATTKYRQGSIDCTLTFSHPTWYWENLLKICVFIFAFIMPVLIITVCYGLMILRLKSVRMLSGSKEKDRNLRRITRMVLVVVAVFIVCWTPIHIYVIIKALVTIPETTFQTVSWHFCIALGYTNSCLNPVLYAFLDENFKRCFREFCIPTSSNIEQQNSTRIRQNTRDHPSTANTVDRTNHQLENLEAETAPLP

residual activity [2]: 102% | inhibition [3]: 0.15% | inhibition [4]: 17.1% | inhibition [5]: -0.36% | residual activity [6]: 98% | residual activity [7]: 102% | residual activity [8]: 78% | inhibition [9]: 1.96% | inhibition [10]: 27% | inhibition [11]: -1.56% | inhibition [12]: 6.31% | residual activity [13]: 107% | inhibition [14]: 12.5% | inhibition [15]: -1.45% | inhibition [16]: -8.96% | inhibition [17]: 11.6% | residual activity [18]: 101% | inhibition [19]: -2.43% | residual activity [20]: 93% | residual activity [21]: 102% | residual activity [22]: 103% | residual activity [23]: 71% | inhibition [24]: 8.61% | residual activity [25]: 113% | inhibition [26]: 7.35% | inhibition [27]: -9.6% | residual activity [28]: 84% | inhibition [29]: 24.5%
Structure (SMILES): CNC(=O)COc1cc2cc(Nc3nc(N4C[C@H](C)C[C@H](C)C4)ncc3Cl)ccc2n(C)c1=O
residual activity [1]: 115%

Kd [30]: No binding | Kd [31]: 1410 nM (not active)
Structure (SMILES): C[C@@H]1C[C@H](C)CN(c2ncc(Cl)c(Nc3ccc4c(c3)cc(OC(C)(C)C(=O)O)c(=O)n4C)n2)C1
residual activity [32]: 95%
